# Measurements as given in patent publication US9676715B2, “Bis-indolic derivatives, a process for preparing the same and their uses as a drug” (UNIVERSITE JOSEPH FOURIER, priority 2011, dated 2017).
# How the values were obtained:
# [1] = test system: S. aureus ATCC 106414 (VISA); experiment: MIC, microdilution method (9.1); format: cell-based, Staphylococcus aureus; conditions: Staphylococcus aureus, read after 18 h, read-out: MIC
# Experimental: (§1) The microdilution method recommended by the Clinical and Laboratory Standard Institute [M07-A8, Vol. 29, No. 2] was used. The activity of indolic compounds was tested against 29 bacterial strains belonging to 17 different species and 12 different genera (Staphylococcus, Streptococcus, Enterococcus, Listeria, Bacillus, Haemophilus, Escherichia, Klebsiella, Enterobacter, Serratia, Pseudomonas, and Acinetobacter). Bacterial inocula were prepared in Mueller Hinton broth (MH2, bioMérieux, Marcy L'Etoile, France), supplemented with 10% sheep blood for fastidious species (i.e., Streptococcus pneumoniae and Haemophilus influenzae). They were dispensed in 96 well microtiter plates (5×10^5 CFU/ml of final inoculum). Indolic compounds were added to the wells as to obtain two-fold serial concentrations (0.50-128 mg/L of final concentrations). Plates were incubated at 37° C. in ambient air, or at 37° C. in 5% CO2 enriched atmosphere for fastidious species. […] Drug-free cultures served as growth controls. Cultures receiving gentamicin, ciprofloxacin or cefotaxime served as positive controls.
# S. aureus ATCC 25923 = experiment: MIC, microdilution method (9.1); format: cell-based, Staphylococcus aureus; conditions: Staphylococcus aureus, ATCC25923, read after 18 h, read-out: MIC
# Experimental: as §1
# S. aureus ATCC 29213 = experiment: MIC, microdilution method (9.1); format: cell-based, Staphylococcus aureus; conditions: Staphylococcus aureus, ATCC29213, read after 18 h, read-out: MIC
# Experimental: as §1
# [2] = test system: S. aureus ATCC 33592 (MRSA); experiment: MIC, microdilution method (9.1); format: cell-based, Staphylococcus aureus; conditions: Staphylococcus aureus, read after 18 h, read-out: MIC
# Experimental: as §1
# S. aureus ATCC 6538 = experiment: MIC, microdilution method (9.1); format: cell-based, Staphylococcus aureus; conditions: Staphylococcus aureus, ATCC6538, read after 18 h, read-out: MIC
# Experimental: as §1
# S. aureus ATCC 9144 = experiment: MIC, microdilution method (9.1); format: cell-based, Staphylococcus aureus; conditions: Staphylococcus aureus, ATCC9144, read after 18 h, read-out: MIC
# Experimental: as §1
# S. aureus CIP 103428 = experiment: MIC, microdilution method (9.1); format: cell-based, Staphylococcus aureus; conditions: Staphylococcus aureus, CIP103428, read after 18 h, read-out: MIC
# Experimental: as §1
# [3] = test system: S. aureus CIP 65.25 (MRSA); experiment: MIC, microdilution method (9.1); format: cell-based, Staphylococcus aureus; conditions: Staphylococcus aureus, read after 18 h, read-out: MIC
# Experimental: as §1
# S. aureus CIP 65.6 = experiment: MIC, microdilution method (9.1); format: cell-based, Staphylococcus aureus; conditions: Staphylococcus aureus, CIP65, read after 18 h, read-out: MIC
# Experimental: as §1
# S. aureus SA-1199B = experiment: MIC, microdilution method (9.1); format: cell-based, Staphylococcus aureus; conditions: Staphylococcus aureus, SA1199B, 18 h
# Experimental: as §1
# [4] = test system: S. epidermidis ATCC 12228; experiment: MIC, microdilution method (9.1); format: cell-based, Staphylococcus epidermidis; conditions: Staphylococcus epidermidis, ATCC12228, read after 18 h, read-out: MIC
# Experimental: as §1
# [5] = test system: S. epidermidis CIP 103627; experiment: MIC, microdilution method (9.1); format: cell-based, Staphylococcus epidermidis; conditions: Staphylococcus epidermidis, CIP103627, read after 18 h, read-out: MIC
# Experimental: as §1
# S. epidermidis CIP 81.55 = experiment: MIC, microdilution method (9.1); format: cell-based, Staphylococcus epidermidis; conditions: Staphylococcus epidermidis, CIP81, read after 18 h, read-out: MIC
# Experimental: as §1
# S. pneumoniae ATCC 6303 = experiment: MIC, microdilution method (9.1); format: cell-based, Streptococcus pneumoniae; conditions: Streptococcus pneumoniae, ATCC6303, 10% sheep blood, 5% CO2, 18 h, read-out: MIC
# Experimental: as §1
# [6] = test system: S. agalactiae (group B) ATCC 12400; experiment: MIC, microdilution method (9.1); format: cell-based, Streptococcus agalactiae; conditions: Streptococcus agalactiae, ATCC12400, 18 h, read-out: MIC
# Experimental: as §1
# [7] = test system: S. pyogenes (group A) CIP 104226; experiment: MIC, microdilution method (9.1); format: cell-based, Streptococcus pyogenes; conditions: Streptococcus pyogenes, CIP104226, 18 h, read-out: MIC
# Experimental: as §1
# S. mitis CIP 103335 = experiment: MIC, microdilution method (9.1); format: cell-based, Streptococcus mitis; conditions: Streptococcus mitis, CIP103335, 18 h, read-out: MIC
# Experimental: as §1
# E. faecium CIP 54.32 = experiment: MIC, microdilution method (9.1); format: cell-based, Enterococcus faecium; conditions: Enterococcus faecium, CIP54, 18 h, read-out: MIC
# Experimental: as §1
# E. faecalis ATCC 29212 = experiment: MIC, microdilution method (9.1); format: cell-based, Enterococcus faecalis; conditions: Enterococcus faecalis, ATCC29212, 18 h, read-out: MIC
# Experimental: as §1
# [8] = test system: Acinetobacter baumanii ATCC 19606; experiment: MIC, microdilution method (9.1); format: cell-based; conditions: Acinetobacter baumannii, ATCC19606, 18 h, read-out: MIC
# Experimental: as §1
# [9] = test system: Bacillus subtilis CIP 5262; experiment: MIC, microdilution method (9.1); format: cell-based; conditions: CIP5262, 18 h, read-out: MIC
# Experimental: as §1
# [10] = test system: Enterobacter cloacae ATCC13047; experiment: MIC, microdilution method (9.1); format: cell-based; conditions: 18 h
# Experimental: as §1
# [11] = test system: Escherichia coli ATCC 25922; experiment: MIC, microdilution method (9.1); format: cell-based; conditions: ATCC25922, 18 h
# Experimental: as §1
# [12] = test system: Haemophilus influenzae ATCC 49766; experiment: MIC, microdilution method (9.1); format: cell-based; conditions: ATCC49766; Haemophilus influenzae ATCC 49766; 10% sheep blood, 5% CO2; 18 h; read-out: MIC
# Experimental: as §1
# [13] = test system: Klebsiella pneumoniae API ATCC 35657; experiment: MIC, microdilution method (9.1); format: cell-based; conditions: ATCC35657, 18 h, read-out: MIC
# Experimental: as §1
# [14] = test system: Listeria innocua CIP 80.11; experiment: MIC, microdilution method (9.1); format: cell-based; conditions: CIP80, 18 h, read-out: MIC
# Experimental: as §1
# [15] = test system: Pseudomonas aeruginosa CIP 5933; experiment: MIC, microdilution method (9.1); format: cell-based; conditions: CIP5933, 18 h, read-out: MIC
# Experimental: as §1
# S. pneumoniae ATCC 49619 = experiment: MIC, microdilution method (9.1); format: cell-based; conditions: Streptococcus pneumoniae, ATCC49619, 10% sheep blood, 5% CO2, 18 h
# Experimental: as §1
# [16] = test system: Serratia marcescens CIP 103551; experiment: MIC, microdilution method (9.1); format: cell-based; conditions: CIP103551, 18 h
# Experimental: as §1
# [17] = test system: HCT116 (human colon tumor); experiment: In vitro cytotoxicity; format: cell-based; conditions: read-out: % of cellular growth inhibition; for inhibition at 10 µM: HCT-116, 10^−5 M; for inhibition at 1 µM: HCT-116, 10^−6 M
# Experimental: (§2) In vitro cytotoxicity was assayed on three cell lines—KB (human mouth carcinoma), MCR5 (human lung fibroblast) and HCT116 (human colon tumor). Results are presented in table IV as % of cellular growth inhibition in presence of 10^−5 M and 10^−6 M of the tested bis-indolic derivatives.
# [18] = test system: KB (human mouth carcinoma); experiment: In vitro cytotoxicity; format: cell-based; conditions: read-out: % of cellular growth inhibition; for inhibition at 10 µM: 10^−5 M; for inhibition at 1 µM: 10^−6 M
# Experimental: as §2
# [19] = test system: MRC5 (human lung fibroblast); experiment: In vitro cytotoxicity; format: cell-based; conditions: read-out: % of cellular growth inhibition; for inhibition at 10 µM: 10^−5 M; for inhibition at 1 µM: 10^−6 M
# Experimental: as §2
# [20] = test system: HCT116 (human colon tumor); experiment: In vitro cytotoxicity; format: cell-based; conditions: HCT-116, HCT116, from 100 μM to 0.005 μM in DMSO, duplicate
structure (smiles),measurement,setting,value
"CC(C)(C)OC(=O)NCC(NC(=O)c1c[nH]c2cc(Br)ccc12)c1c[nH]c2cc(Br)ccc12 (centres unmarked) [Compound 3i, tert-Butyl (2-(6-bromo-1H-indol-3-yl)-2-(6-bromo-1H-indolyl-3-carboxamido)ethyl)carbamate]",MIC,[1],1 µg/mL
same,MIC,S. aureus ATCC 25923,2 µg/mL
same,MIC,S. aureus ATCC 29213,2 µg/mL
same,MIC,[2],1 µg/mL
same,MIC,S. aureus ATCC 6538,2 µg/mL
same,MIC,S. aureus ATCC 9144,2 µg/mL
same,MIC,S. aureus CIP 103428,1 µg/mL
same,MIC,[3],1 µg/mL
same,MIC,S. aureus CIP 65.6,1 µg/mL
same,MIC,S. aureus SA-1199B,1 µg/mL
same,MIC,[4],2 µg/mL
same,MIC,[5],2 µg/mL
same,MIC,S. epidermidis CIP 81.55,2 µg/mL
same,MIC,S. pneumoniae ATCC 6303,32 µg/mL
same,MIC,[6],32 µg/mL
same,MIC,[7],32 µg/mL
same,MIC,S. mitis CIP 103335,64 µg/mL
same,MIC,E. faecium CIP 54.32,64 µg/mL
same,MIC,E. faecalis ATCC 29212,> 128 µg/mL
same,MIC,[8],> 128 µg/mL
same,MIC,[9],64 µg/mL
same,MIC,[10],> 128 µg/mL
same,MIC,[11],> 128 µg/mL
same,MIC,[12],16 µg/mL
same,MIC,[13],> 128 µg/mL
same,MIC,[14],32 µg/mL
same,MIC,[15],> 128 µg/mL
same,MIC,S. pneumoniae ATCC 49619,32 µg/mL
same,MIC,[16],> 128 µg/mL
same,inhibition at 10 µM,[17],91 ± 1%
same,inhibition at 1 µM,[17],4%
same,inhibition at 10 µM,[18],100 ± 1%
same,inhibition at 1 µM,[18],3%
same,inhibition at 10 µM,[19],91 ± 7%
same,inhibition at 1 µM,[19],10%
same,IC50,[20]; first value,1900 nM
same,IC50,[20]; second value,2100 nM
"CC(C)(C)OC(=O)NCC(NC(=O)c1c[nH]c2ccc(Cl)cc12)c1c[nH]c2ccc(Cl)cc12 (centres unmarked) [Compound 6a, tert-Butyl 2-(5-chloro-1H-indol-3-yl)-2-(5-chloro-1H-indole-3-carboxamido)ethylcarbamate]",MIC,[1],4 µg/mL
same,MIC,S. aureus ATCC 25923,4 µg/mL
same,MIC,S. aureus ATCC 29213,≤ 2 µg/mL
same,MIC,[2],4 µg/mL
same,MIC,S. aureus ATCC 6538,4 µg/mL
same,MIC,S. aureus ATCC 9144,4 µg/mL
same,MIC,S. aureus CIP 103428,4 µg/mL
same,MIC,[3],4 µg/mL
same,MIC,S. aureus CIP 65.6,4 µg/mL
same,MIC,S. aureus SA-1199B,4 µg/mL
same,MIC,[4],4 µg/mL
same,MIC,[5],4 µg/mL
same,MIC,S. epidermidis CIP 81.55,4 µg/mL
same,MIC,S. pneumoniae ATCC 6303,32 µg/mL
same,MIC,[6],64 µg/mL
same,MIC,[7],64 µg/mL
same,MIC,S. mitis CIP 103335,64 µg/mL
same,MIC,E. faecium CIP 54.32,> 128 µg/mL
same,MIC,E. faecalis ATCC 29212,> 128 µg/mL
same,MIC,[8],> 128 µg/mL
same,MIC,[9],64 µg/mL
same,MIC,[10],> 128 µg/mL
same,MIC,[11],> 128 µg/mL
same,MIC,[12],> 128 µg/mL
same,MIC,[13],> 128 µg/mL
same,MIC,[14],> 128 µg/mL
same,MIC,[15],> 128 µg/mL
same,MIC,S. pneumoniae ATCC 49619,64 µg/mL
same,MIC,[16],> 128 µg/mL
same,inhibition at 10 µM,[17],80 ± 9%
same,inhibition at 1 µM,[17],0%
same,inhibition at 10 µM,[18],87 ± 6%
same,inhibition at 1 µM,[18],4%
same,inhibition at 10 µM,[19],82 ± 4%
same,inhibition at 1 µM,[19],0%
same,IC50,[20]; first value,4350 nM
same,IC50,[20]; second value,3790 nM
